# Assay results reported in paper PMC10746112, “Synthesis and Pro-Apoptotic Effects of Nitrovinylanthracenes and Related Compounds in Chronic Lymphocytic Leukaemia (CLL) and Burkitt’s Lymphoma (BL)” (Molecules, 2023).
# Columns and labels:
# HG-3 CLL cells = assay: Annexin V/PI apoptotic assay (FACS); format: cell-based; details: HG-3, 10 μM, 48 h
# Description: (§1) The pro-apoptotic effects of the selected nitrovinylanthracene compounds 19a, 19g, 19i, 19l and 19m after 48 h were next determined using FITC (fluorescein isothiocyanate), Annexin V/PI (propidium iodide) staining and FACS (fluorescence-activated cell sorting) analysis to characterize the mode of cellular death induced. […] The CLL cells PGA1 and HG3 (1 × 10^6 cells/mL) were treated at 37 °C with either vehicle (1% (v/v) DMSO) or the nitrostyrene compounds 19a (10 μM, 5 μM and 1 μM) and 19g, 19i, 19l and 19m (10 μM and 1 μM) for 48 h. The cells were then harvested by centrifugation at 400× g in a temperature-controlled Sorvall centrifuge and rinsed with 0.5 mL of Ca^2+ Annexin-V-binding buffer (0.1 M HEPES, pH 7.4; 0.14 M NaCl; 25 mM CaCl2). The samples were resuspended in 50 µL FITC Annexin V (diluted 1:33 in Ca^2+ Annexin V-binding buffer), incubated on ice for 10 min (protected from light), washed with Annexin-V-binding buffer and re-suspended in 500 µL of propidium iodide (PI) solution (0.5 µg/mL). The samples were analysed within 1 h using a BD Accuri C6 flow cytometer counting 10,000 cells and analysed using the FlowJo software (FlowJo LLC, Ashland, OR, USA) package.
# PGA-1 CLL cells = assay: Annexin V/PI apoptotic assay (FACS); format: cell-based; details: PGA-1, 10 μM, 48 h
# Description: as §1
# [1] = test system: MUTU-I Burkitt’s lymphoma cell line; assay: alamarBlue cell viability assay; details: MUTU-I, 24 h; for viability at 1 µM: read-out: % Viable Cells Remaining MUTU-1, 1 µM, 24 h; for viability at 10 µM: read-out: % Viable Cells Remaining MUTU-1, 10 µM, 24 h
# [2] = test system: DG-75 Burkitt’s lymphoma cell line; assay: alamarBlue cell viability assay; details: Homo sapiens, DG-75, 48 h; for viability at 1 µM: read-out: % Viable Cells Remaining DG-75, 1 µM, 48 h; for viability at 10 µM: read-out: % Viable Cells Remaining DG-75, 10 µM, 48 h
# HG-3 CLL cell line = assay: alamarBlue cell viability assay; details: CLL cell, 24 h; for viability at 10 µM: read-out: % Viability HG-3, 10 µM, 24 h; for IC50: read-out: HG-3 IC50, 24 h
# PGA-1 CLL cell line = assay: alamarBlue cell viability assay; details: CLL cell, 24 h; for viability at 10 µM: read-out: % Viability PGA-1, 10 µM, 24 h; for IC50: read-out: PGA-1 IC50, 24 h
# [3] = test system: MDA-MB-231 human breast cancer cells; assay: alamarBlue cell viability assay; format: cell-based; details: eight concentrations 0.001–50 μM
# [4] = test system: MCF-7 human breast cancer cells; assay: alamarBlue cell viability assay; details: MCF7, read-out: MCF-7 IC50
IC50 [3],IC50 [4],Structure (SMILES),total apoptosis (HG-3 CLL cells),total apoptosis (PGA-1 CLL cells),viability at 1 µM [1],viability at 10 µM [1],viability at 1 µM [2],viability at 10 µM [2],"viability at 1 µM (HG-3 CLL cell line; read-out: % Viability HG-3, 1 µM, 24 h)",viability at 10 µM (HG-3 CLL cell line),IC50 (HG-3 CLL cell line),viability at 10 µM (PGA-1 CLL cell line),IC50 (PGA-1 CLL cell line)
,,"CCc1c2ccccc2c(/C=C/[N+](=O)[O-])c2ccccc12 [Compound 19l, (E)-9-Ethyl-10-(2-Nitrovinyl)Anthracene]",74%,82%,72.7%,0.5%,104%,4.04%,78%,0.5%,5.4 µM,2.7%,1.3 µM
3.26 µM,2.11 µM,"Cc1c2ccccc2c(/C=C/[N+](=O)[O-])c2ccccc12 [Compound 19i, (E)-9-Methyl-10-(2-Nitrovinyl)Anthracene]",70%,80%,94.5%,1.95%,96.7%,19.5%,,0.5 to 8.3%,3.85 µM,2.9%,4.4 µM
